ChEMBL document CHEMBL1201862, “PubChem BioAssay data set” (2004)
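Briefly, cells in 96-well plates were exposed to five compound concentrations for 48 h, and endpoints were estimated by linear interpolation. GI50 is the concentration that inhibits growth by half.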 The source made the active and inactive calls. Cut-off read from the data, not from the text of the source: active = GI50 up to about 1.1 µM and inactive = higher.

Tests used:
Assay in all cases: inhibition of tumour cell growth, NCI panel, 48 h
OVCAR-8 = tested on: OVCAR-8
HCT-116 = tested on: HCT-116
UO-31 = tested on: UO-31
K562 = tested on: K562
MCF7 = tested on: MCF7
HL-60 = tested on: HL-60
SR = tested on: SR
CAKI-1 = tested on: CAKI-1
SW-620 = tested on: SW-620
HOP-92 = tested on: HOP-92
HCC 2998 = tested on: HCC 2998
EKVX = tested on: EKVX
A549 = tested on: A549
NCI-H460 = tested on: NCI-H460
HT-29 = tested on: HT-29
786-0 = tested on: 786-0
NCI-H522 = tested on: NCI-H522
OVCAR-3 = tested on: OVCAR-3
T47D = tested on: T47D
UACC-257 = tested on: UACC-257
SK-MEL-28 = tested on: SK-MEL-28
SF-539 = tested on: SF-539
SF-295 = tested on: SF-295
M14 = tested on: M14
A498 = tested on: A498
Malme-3M = tested on: Malme-3M
SNB-19 = tested on: SNB-19
RPMI-8226 = tested on: RPMI-8226
UACC-62 = tested on: UACC-62
U-251 = tested on: U-251
DU-145 = tested on: DU-145
OVCAR-5 = tested on: OVCAR-5
IGROV-1 = tested on: IGROV-1
MDA-MB-435 = tested on: MDA-MB-435
SF-268 = tested on: SF-268
KM12 = tested on: KM12
NCI-H23 = tested on: NCI-H23
HCT-15 = tested on: HCT-15
HOP-62 = tested on: HOP-62
SK-MEL-2 = tested on: SK-MEL-2
SNB-75 = tested on: SNB-75
CCRF-CEM = tested on: CCRF-CEM
NCI/ADR-RES = tested on: NCI/ADR-RES
MOLT-4 = tested on: MOLT-4
Hs-578T = tested on: Hs-578T
PC-3 = tested on: PC-3
MDA-MB-231 = tested on: MDA-MB-231
COLO 205 = tested on: COLO 205
ACHN = tested on: ACHN
TK-10 = tested on: TK-10
SK-MEL-5 = tested on: SK-MEL-5
OVCAR-4 = tested on: OVCAR-4
SN12C = tested on: SN12C
LOX IMVI = tested on: LOX IMVI
MDA-N = tested on: MDA-N
RXF 393 = tested on: RXF 393
SK-OV-3 = tested on: SK-OV-3

With `CC(=O)c1ccc(NC(=O)CSc2nc(C)nc3c2sc(=S)n3-c2ccccc2)cc1` the GI50 (OVCAR-8) was > 10 µM (inactive), the GI50 (HCT-116) was 3 µM (inactive) and the GI50 (UO-31) was 9.42 µM (inactive). For the same compound, the GI50 (K562) was > 10 µM (inactive), the GI50 (MCF7) was > 10 µM (inactive) and the GI50 (HL-60) was 2.99 µM (inactive). For the same compound, the GI50 (SR) was 2.2 µM (inactive).

With `CCOC(=O)C1C(c2ccc3c(c2)OCO3)c2c(n[nH]c2O)CC1(O)OCC` (centres undefined) the GI50 (CAKI-1) was > 100 µM (inactive), the GI50 (SW-620) was > 100 µM (inactive) and the GI50 (HOP-92) was > 100 µM (inactive). The GI50 (HCC 2998) was > 100 µM (inactive), the GI50 (EKVX) was > 100 µM (inactive) and the GI50 (A549) was > 100 µM (inactive). The GI50 (NCI-H460) was > 100 µM (inactive), the GI50 (HT-29) was > 100 µM (inactive) and the GI50 (786-0) was > 100 µM (inactive). The GI50 (NCI-H522) was > 100 µM (inactive), the GI50 (OVCAR-3) was > 100 µM (inactive) and the GI50 (T47D) was > 100 µM (inactive). The GI50 (UACC-257) was > 100 µM (inactive), the GI50 (SK-MEL-28) was > 100 µM (inactive) and the GI50 (OVCAR-8) was > 100 µM (inactive). For the same compound, the GI50 (SF-539) was > 100 µM (inactive), the GI50 (SF-295) was > 100 µM (inactive) and the GI50 (M14) was > 100 µM (inactive). For the same compound, the GI50 (A498) was > 100 µM (inactive), the GI50 (Malme-3M) was > 100 µM (inactive) and the GI50 (SNB-19) was > 10 µM (inactive). The GI50 (RPMI-8226) was > 100 µM (inactive), the GI50 (UACC-62) was > 100 µM (inactive) and the GI50 (HCT-116) was > 100 µM (inactive). The GI50 (U-251) was > 100 µM (inactive), the GI50 (DU-145) was > 100 µM (inactive) and the GI50 (OVCAR-5) was > 100 µM (inactive). The GI50 (IGROV-1) was > 100 µM (inactive), the GI50 (MDA-MB-435) was > 100 µM (inactive) and the GI50 (SF-268) was > 100 µM (inactive). The GI50 (KM12) was > 100 µM (inactive), the GI50 (UO-31) was > 100 µM (inactive) and the GI50 (NCI-H23) was > 100 µM (inactive). For the same compound, the GI50 (HCT-15) was over 100 µM, the GI50 (HOP-62) was > 100 µM (inactive) and the GI50 (SK-MEL-2) was > 100 µM (inactive). The GI50 (MCF7) was > 100 µM (inactive), the GI50 (SNB-75) was > 100 µM (inactive) and the GI50 (CCRF-CEM) was > 100 µM (inactive). For the same compound, the GI50 (NCI/ADR-RES) was > 100 µM (inactive), the GI50 (MOLT-4) was > 100 µM (inactive) and the GI50 (Hs-578T) was > 100 µM (inactive). For the same compound, the GI50 (PC-3) was > 100 µM (inactive), the GI50 (MDA-MB-231) was > 100 µM (inactive) and the GI50 (COLO 205) was > 100 µM (inactive). For the same compound, the GI50 (ACHN) was > 100 µM (inactive), the GI50 (TK-10) was > 100 µM (inactive) and the GI50 (HL-60) was > 100 µM (inactive). The GI50 (SK-MEL-5) was > 100 µM (inactive), the GI50 (OVCAR-4) was > 100 µM (inactive) and the GI50 (SN12C) was > 100 µM (inactive). The GI50 (SR) was > 100 µM (inactive) and the GI50 (LOX IMVI) was > 100 µM (inactive).

For `COc1ccc2c(c1)c[n+](C)c1c3cc(OC)c(OC)cc3ccc21`, the GI50 (CAKI-1) was 11.9 µM (inactive), the GI50 (SW-620) was 1.37 µM (inactive) and the GI50 (MDA-N) was 1.6 µM (inactive). The GI50 (A549) was 1.54 µM (inactive), the GI50 (NCI-H522) was 1.02 µM (active) and the GI50 (OVCAR-8) was 1.22 µM (inactive). For the same compound, the GI50 (SNB-19) was 3.21 µM (inactive), the GI50 (U-251) was 1.02 µM (active) and the GI50 (SF-268) was 1.45 µM (inactive). The GI50 (HCT-15) was 14 µM, the GI50 (NCI/ADR-RES) was > 100 µM (inactive) and the GI50 (Hs-578T) was 2.05 µM (inactive). The GI50 (MDA-MB-231) was 1.42 µM (inactive), the GI50 (COLO 205) was 1.67 µM (inactive) and the GI50 (SN12C) was 1.73 µM (inactive). For the same compound, the GI50 (SR) was 2.1 µM (inactive) and the GI50 (LOX IMVI) was 1.32 µM (inactive).

In the case of `COc1cc2ccc3ccncc3c2cc1OC`, the GI50 (RXF 393) is reported as > 10 µM (inactive), the GI50 (CAKI-1) is reported as > 10 µM (inactive) and the GI50 (SW-620) is reported as > 10 µM (inactive). The GI50 (A549) was > 10 µM (inactive), the GI50 (NCI-H460) was > 10 µM (inactive) and the GI50 (786-0) was > 10 µM (inactive). The GI50 (T47D) was > 10 µM (inactive), the GI50 (SK-MEL-28) was > 10 µM (inactive) and the GI50 (M14) was > 10 µM (inactive). For the same compound, the GI50 (Malme-3M) was > 10 µM (inactive), the GI50 (RPMI-8226) was > 10 µM (inactive) and the GI50 (UACC-62) was > 10 µM (inactive). The GI50 (U-251) was > 10 µM (inactive), the GI50 (OVCAR-5) was > 10 µM (inactive) and the GI50 (IGROV-1) was > 10 µM (inactive). For the same compound, the GI50 (MDA-MB-435) was > 10 µM (inactive), the GI50 (SF-268) was > 10 µM (inactive) and the GI50 (NCI-H23) was > 10 µM (inactive). For the same compound, the GI50 (HOP-62) was > 10 µM (inactive), the GI50 (K562) was > 10 µM (inactive) and the GI50 (SK-MEL-2) was > 10 µM (inactive). For the same compound, the GI50 (MCF7) was > 10 µM (inactive), the GI50 (SNB-75) was > 10 µM (inactive) and the GI50 (CCRF-CEM) was > 10 µM (inactive). For the same compound, the GI50 (NCI/ADR-RES) was > 10 µM (inactive), the GI50 (MOLT-4) was > 10 µM (inactive) and the GI50 (COLO 205) was > 10 µM (inactive). The GI50 (ACHN) was > 10 µM (inactive), the GI50 (SK-MEL-5) was > 10 µM (inactive) and the GI50 (SK-OV-3) was > 10 µM (inactive). The GI50 (OVCAR-4) was > 10 µM (inactive) and the GI50 (SR) was > 10 µM (inactive).
